Experimental data: ChEMBL document CHEMBL3046904, “Synthesis, characterization, bioactivity, and POM analyses of isothiochromeno[3,4-e][1,2]oxazines” (2013)

Assays:
Assay type in all cases: functional
SW-620 = experiment: Cytotoxicity against Homo sapiens (human) SW620 after 48 hr by Alamar Blue assay; conditions: SW-620, 48 h
HT-29 = experiment: Cytotoxicity against Homo sapiens (human) HT-29 after 48 hr by Alamar Blue assay; conditions: HT-29, 48 h
HCT-15 = experiment: Cytotoxicity against Homo sapiens (human) HCT15 after 48 hr by Alamar Blue assay; conditions: HCT-15, 48 h
HCC 2998 = experiment: Cytotoxicity against Homo sapiens (human) HCC2998 after 48 hr by Alamar Blue assay; conditions: HCC 2998, 48 h
HCT-116 = experiment: Cytotoxicity against Homo sapiens (human) HCT116 after 48 hr by Alamar Blue assay; conditions: HCT-116, 48 h
COLO 205 = experiment: Cytotoxicity against Homo sapiens (human) COLO205 after 48 hr by Alamar Blue assay; conditions: COLO 205, 48 h
BT-549 = experiment: Cytotoxicity against Homo sapiens (human) BT549 after 48 hr by Alamar Blue assay; conditions: BT-549, 48 h
T47D = experiment: Cytotoxicity against Homo sapiens (human) T47D after 48 hr by Alamar Blue assay
Hs-578T = experiment: Cytotoxicity against Homo sapiens (human) Hs 578T after 48 hr by Alamar Blue assay
NCI/ADR-RES = experiment: Cytotoxicity against Homo sapiens (human) NCI/ADR-RES after 48 hr by Alamar Blue assay
MCF7 [1] = experiment: Cytotoxicity against Homo sapiens (human) MCF7 after 48 hr by Alamar Blue assay; conditions: MCF7, 48 h
PC-3 = experiment: Cytotoxicity against Homo sapiens (human) PC3 after 48 hr by Alamar Blue assay; conditions: PC-3, 48 h
DU-145 = experiment: Cytotoxicity against Homo sapiens (human) DU145 after 48 hr by Alamar Blue assay; conditions: DU-145, 48 h
UO-31 = experiment: Cytotoxicity against Homo sapiens (human) UO31 after 48 hr by Alamar Blue assay; conditions: UO-31, 48 h
SN12C = experiment: Cytotoxicity against Homo sapiens (human) SN12C after 48 hr by Alamar Blue assay
TK-10 = experiment: Cytotoxicity against Homo sapiens (human) TK10 after 48 hr by Alamar Blue assay; conditions: TK-10, 48 h
RXF 393 = experiment: Cytotoxicity against Homo sapiens (human) RXF393 after 48 hr by Alamar Blue assay; conditions: RXF 393, 48 h
CAKI-1 = experiment: Cytotoxicity against Homo sapiens (human) Caki1 after 48 hr by Alamar Blue assay; conditions: CAKI-1, 48 h
ACHN = experiment: Cytotoxicity against Homo sapiens (human) ACHN after 48 hr by Alamar Blue assay
A498 = experiment: Cytotoxicity against Homo sapiens (human) A498 after 48 hr by Alamar Blue assay; conditions: A498, 48 h
A549 = experiment: Cytotoxicity against Homo sapiens (human) A549 after 48 hr by Alamar Blue assay; conditions: A549, 48 h
RPMI-8226 = experiment: Cytotoxicity against Homo sapiens (human) RPMI8226 after 48 hr by Alamar Blue assay; conditions: RPMI-8226, 48 h
SR = experiment: Cytotoxicity against Homo sapiens (human) SR after 48 hr by Alamar Blue assay
MOLT-4 = experiment: Cytotoxicity against Homo sapiens (human) MOLT4 after 48 hr by Alamar Blue assay; conditions: MOLT-4, 48 h
[2] = Cytotoxicity against Homo sapiens (human) HL-60(TB) after 48 hr by Alamar Blue assay; conditions: HL-60, 48 h
SF-268 [3] = experiment: Cytotoxicity against Homo sapiens (human) SF268 assessed as cell growth at 10^-4 M after 48 hr by Alamar Blue assay; conditions: SF-268, 48 h, read-out: Activity
MCF7 [4] = experiment: Cytotoxicity against Homo sapiens (human) MCF7 assessed as cell growth at 10^-4 M after 48 hr by Alamar Blue assay; conditions: MCF7, 48 h, read-out: Activity
NCI-H460 [5] = experiment: Cytotoxicity against Homo sapiens (human) NCI-H460 assessed as cell growth at 10^-4 M after 48 hr by Alamar Blue assay; conditions: NCI-H460, 48 h, read-out: Activity
HOP-92 = experiment: Cytotoxicity against Homo sapiens (human) HOP92 after 48 hr by Alamar Blue assay; conditions: HOP-92, 48 h
NCI-H226 = experiment: Cytotoxicity against Homo sapiens (human) NCI-H226 after 48 hr by Alamar Blue assay; conditions: NCI-H226, 48 h
EKVX = experiment: Cytotoxicity against Homo sapiens (human) EKVX after 48 hr by Alamar Blue assay
HOP-62 = experiment: Cytotoxicity against Homo sapiens (human) HOP62 after 48 hr by Alamar Blue assay; conditions: HOP-62, 48 h
OVCAR-8 = experiment: Cytotoxicity against Homo sapiens (human) OVCAR8 after 48 hr by Alamar Blue assay; conditions: OVCAR-8, 48 h
OVCAR-4 = experiment: Cytotoxicity against Homo sapiens (human) OVCAR4 after 48 hr by Alamar Blue assay; conditions: OVCAR-4, 48 h
OVCAR-5 = experiment: Cytotoxicity against Homo sapiens (human) OVCAR5 after 48 hr by Alamar Blue assay; conditions: OVCAR-5, 48 h
OVCAR-3 = experiment: Cytotoxicity against Homo sapiens (human) OVCAR3 after 48 hr by Alamar Blue assay; conditions: OVCAR-3, 48 h
IGROV-1 = experiment: Cytotoxicity against Homo sapiens (human) IGROV1 after 48 hr by Alamar Blue assay; conditions: IGROV-1, 48 h
UACC-257 = experiment: Cytotoxicity against Homo sapiens (human) UACC257 after 48 hr by Alamar Blue assay; conditions: UACC-257, 48 h
SK-MEL-5 = experiment: Cytotoxicity against Homo sapiens (human) SK-MEL-5 after 48 hr by Alamar Blue assay; conditions: SK-MEL-5, 48 h
Malme-3M = experiment: Cytotoxicity against Homo sapiens (human) MALME-3M after 48 hr by Alamar Blue assay
M14 = experiment: Cytotoxicity against Homo sapiens (human) M14 after 48 hr by Alamar Blue assay; conditions: M14, 48 h
SNB-19 = experiment: Cytotoxicity against Homo sapiens (human) SNB19 after 48 hr by Alamar Blue assay; conditions: SNB-19, 48 h
SF-295 = experiment: Cytotoxicity against Homo sapiens (human) SF295 after 48 hr by Alamar Blue assay; conditions: SF-295, 48 h
SF-268 [6] = experiment: Cytotoxicity against Homo sapiens (human) SF268 after 48 hr by Alamar Blue assay; conditions: SF-268, 48 h
NCI-H522 = experiment: Cytotoxicity against Homo sapiens (human) NCI-H522 after 48 hr by Alamar Blue assay; conditions: NCI-H522, 48 h
NCI-H460 [7] = experiment: Cytotoxicity against Homo sapiens (human) NCI-H460 after 48 hr by Alamar Blue assay; conditions: NCI-H460, 48 h
NCI-H322M = experiment: Cytotoxicity against Homo sapiens (human) NCI-H322M after 48 hr by Alamar Blue assay

For `Cc1ccc(C2=NOC3=c4ccccc4=CSC3=C2c2ccc(C)cc2)cc1`, the GI50 (SW-620) was > 100 µM, the GI50 (HT-29) was > 100 µM and the GI50 (HCT-15) was > 100 µM. The GI50 (HCC 2998) was > 100 µM, the GI50 (HCT-116) was 57.5 µM and the GI50 (COLO 205) was > 100 µM. For the same compound, the GI50 (BT-549) was > 100 µM, the GI50 (T47D) was 25.4 µM and the GI50 (Hs-578T) was > 100 µM. The GI50 (NCI/ADR-RES) was > 100 µM, the GI50 (MCF7 [1]) was > 100 µM and the GI50 (PC-3) was > 100 µM. For the same compound, the GI50 (DU-145) was > 100 µM, the GI50 (UO-31) was > 100 µM and the GI50 (SN12C) was 20 µM. For the same compound, the GI50 (TK-10) was > 100 µM, the GI50 (RXF 393) was > 100 µM and the GI50 (CAKI-1) was > 100 µM. The GI50 (ACHN) was > 100 µM, the GI50 (A498) was > 100 µM and the GI50 (A549) was > 100 µM. The GI50 (RPMI-8226) was 69.2 µM, the GI50 (SR) was 42 µM and the GI50 (MOLT-4) was 37.1 µM. The GI50 [2] was > 0.1 nM, the growth at 100 µM (SF-268 [3]) was 91% and the growth at 100 µM (MCF7 [4]) was 36%. The growth at 100 µM (NCI-H460 [5]) was 93%, the GI50 (HOP-92) was 68.1 µM and the GI50 (NCI-H226) was > 100 µM. The GI50 (EKVX) was > 100 µM, the GI50 (HOP-62) was > 100 µM and the GI50 (OVCAR-8) was 40 µM. The GI50 (OVCAR-4) was > 100 µM, the GI50 (OVCAR-5) was > 100 µM and the GI50 (OVCAR-3) was 94.8 µM. The GI50 (IGROV-1) was > 100 µM, the GI50 (UACC-257) was > 100 µM and the GI50 (SK-MEL-5) was > 100 µM. For the same compound, the GI50 (Malme-3M) was > 100 µM, the GI50 (M14) was > 100 µM and the GI50 (SNB-19) was > 100 µM. The GI50 (SF-295) was > 100 µM, the GI50 (SF-268 [6]) was > 100 µM and the GI50 (NCI-H522) was 53.8 µM. For the same compound, the GI50 (NCI-H460 [7]) was > 100 µM and the GI50 (NCI-H322M) was > 100 µM.

For `Cc1ccc(C2=C3SC=c4ccccc4=C3ON=C2c2ccc(Cl)cc2)cc1`, the GI50 (SW-620) was 55.6 µM, the GI50 (HT-29) was > 100 µM and the GI50 (HCT-15) was 81.2 µM. The GI50 (HCC 2998) was > 100 µM, the GI50 (HCT-116) was 62.7 µM and the GI50 (COLO 205) was 46.2 µM. For the same compound, the GI50 (BT-549) was 41.2 µM, the GI50 (T47D) was 31.4 µM and the GI50 (Hs-578T) was > 100 µM. For the same compound, the GI50 (NCI/ADR-RES) was > 100 µM, the GI50 (MCF7 [1]) was 31.2 µM and the GI50 (PC-3) was 21.6 µM. The GI50 (DU-145) was > 100 µM, the GI50 (UO-31) was > 100 µM and the GI50 (SN12C) was 11.3 µM. For the same compound, the GI50 (TK-10) was > 100 µM, the GI50 (RXF 393) was > 100 µM and the GI50 (CAKI-1) was > 100 µM. The GI50 (ACHN) was > 100 µM, the GI50 (A498) was > 100 µM and the GI50 (A549) was > 100 µM. For the same compound, the GI50 (RPMI-8226) was 11.8 µM, the GI50 (SR) was 36.5 µM and the GI50 (MOLT-4) was 12.5 µM. For the same compound, the GI50 [2] was 0.0182 nM, the growth at 100 µM (SF-268 [3]) was 37% and the growth at 100 µM (MCF7 [4]) was 2%. For the same compound, the growth at 100 µM (NCI-H460 [5]) was 91%, the GI50 (HOP-92) was 26.5 µM and the GI50 (NCI-H226) was > 100 µM. The GI50 (EKVX) was > 100 µM, the GI50 (HOP-62) was > 100 µM and the GI50 (OVCAR-8) was 11.6 µM. For the same compound, the GI50 (OVCAR-4) was > 100 µM, the GI50 (OVCAR-5) was > 100 µM and the GI50 (OVCAR-3) was > 100 µM. For the same compound, the GI50 (IGROV-1) was > 10 µM, the GI50 (UACC-257) was 25.6 µM and the GI50 (SK-MEL-5) was 53.1 µM. For the same compound, the GI50 (Malme-3M) was 22.1 µM, the GI50 (M14) was > 100 µM and the GI50 (SNB-19) was > 100 µM. For the same compound, the GI50 (SF-295) was > 100 µM, the GI50 (SF-268 [6]) was 12.1 µM and the GI50 (NCI-H522) was 15.1 µM. For the same compound, the GI50 (NCI-H460 [7]) was > 100 µM and the GI50 (NCI-H322M) was > 100 µM.
